# Reference: ChEMBL document CHEMBL1201862, “PubChem BioAssay data set” (2004)
#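 Five compound concentrations were applied to cells in 96-well plates for 48 hours; endpoints were derived by simple linear interpolation of the resulting dose-response curve. GI50 = concentration required for 50% inhibition of growth.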 The source made the active and inactive calls. No stated cut-off is given here; in the data, active = GI50 up to about 1.1 µM and inactive = higher.
# How the values were obtained:
# Experiment in all cases: inhibition of tumour cell growth, NCI panel, 48 h
# [1] = system: 786-0
# [2] = system: A549
# [3] = system: ACHN
# [4] = system: CAKI-1
# [5] = system: CCRF-CEM
# [6] = system: COLO 205
# [7] = system: DLD-1
# [8] = system: DMS-114
# [9] = system: DMS-273
# [10] = system: EKVX
# [11] = system: HCC 2998
# [12] = system: HCT-116
# [13] = system: HCT-15
# [14] = system: HL-60
# [15] = system: HOP-62
# [16] = system: HT-29
# [17] = system: K562
# [18] = system: KM12
# [19] = system: LOX IMVI
# [20] = system: M19-MEL
# [21] = system: MOLT-4
# [22] = system: Malme-3M
# [23] = system: NCI-H226
# [24] = system: NCI-H23
# [25] = system: NCI-H460
# [26] = system: NCI-H522
# [27] = system: OVCAR-3
# [28] = system: OVCAR-4
# [29] = system: OVCAR-5
# [30] = system: OVCAR-8
# [31] = system: RPMI-8226
# [32] = system: SF-268
# [33] = system: SF-295
# [34] = system: SF-539
# [35] = system: SK-MEL-28
# [36] = system: SK-MEL-2
# [37] = system: SK-MEL-5
# [38] = system: SN12C
# [39] = system: SNB-19
# [40] = system: SNB-75
# [41] = system: SNB-78
# [42] = system: SR
# [43] = system: SW-620
# [44] = system: TK-10
# [45] = system: U-251
# [46] = system: UACC-257
# [47] = system: UO-31
# [48] = system: XF498
# [49] = system: IGROV-1
# [50] = system: KM-20L2
# [51] = system: LXFL 529
# [52] = system: M14
# [53] = system: RXF 393
# [54] = system: UACC-62
# [55] = system: A498
# [56] = system: BT-549
# [57] = system: DU-145
# [58] = system: HOP-92
# [59] = system: Hs-578T
# [60] = system: MCF7
# [61] = system: MDA-MB-231
# [62] = system: MDA-MB-435
# [63] = system: MDA-N
# [64] = system: NCI/ADR-RES
# [65] = system: PC-3
# [66] = system: SK-OV-3
# [67] = system: T47D
smiles,measurement,setting,value
CC(=O)Nc1ccc(C(=O)N2N=C(C)/C(=C/c3ccc(O)cc3)C2=O)cc1,GI50,[1],> 100 µM (inactive)
same,GI50,[2],> 100 µM (inactive)
same,GI50,[3],> 100 µM (inactive)
same,GI50,[4],> 100 µM (inactive)
same,GI50,[5],> 100 µM (inactive)
same,GI50,[6],> 100 µM (inactive)
same,GI50,[7],> 100 µM (inactive)
same,GI50,[8],> 100 µM (inactive)
same,GI50,[9],> 100 µM (inactive)
same,GI50,[10],> 100 µM (inactive)
same,GI50,[11],> 100 µM (inactive)
same,GI50,[12],> 100 µM (inactive)
same,GI50,[13],> 100 µM
same,GI50,[14],> 100 µM (inactive)
same,GI50,[15],> 100 µM (inactive)
same,GI50,[16],> 100 µM (inactive)
same,GI50,[17],> 100 µM (inactive)
same,GI50,[18],> 100 µM (inactive)
same,GI50,[19],> 100 µM (inactive)
same,GI50,[20],> 100 µM (inactive)
same,GI50,[21],> 100 µM (inactive)
same,GI50,[22],> 100 µM (inactive)
same,GI50,[23],> 100 µM (inactive)
same,GI50,[24],> 100 µM (inactive)
same,GI50,[25],> 100 µM (inactive)
same,GI50,[26],> 100 µM (inactive)
same,GI50,[27],> 100 µM (inactive)
same,GI50,[28],> 100 µM (inactive)
same,GI50,[29],> 100 µM (inactive)
same,GI50,[30],> 100 µM (inactive)
same,GI50,[31],> 100 µM (inactive)
same,GI50,[32],> 100 µM (inactive)
same,GI50,[33],> 100 µM (inactive)
same,GI50,[34],> 100 µM (inactive)
same,GI50,[35],> 100 µM (inactive)
same,GI50,[36],> 100 µM (inactive)
same,GI50,[37],> 100 µM (inactive)
same,GI50,[38],> 100 µM (inactive)
same,GI50,[39],> 100 µM (inactive)
same,GI50,[40],> 100 µM (inactive)
same,GI50,[41],> 100 µM (inactive)
same,GI50,[42],> 100 µM (inactive)
same,GI50,[43],> 100 µM (inactive)
same,GI50,[44],> 100 µM (inactive)
same,GI50,[45],> 100 µM (inactive)
same,GI50,[46],> 100 µM (inactive)
same,GI50,[47],> 100 µM (inactive)
same,GI50,[48],> 100 µM (inactive)
CCCN(CCC)C1=Nc2ccccc2-n2cnnc2C1,GI50,[1],> 100 µM (inactive)
same,GI50,[2],> 100 µM (inactive)
same,GI50,[3],> 100 µM (inactive)
same,GI50,[5],> 100 µM (inactive)
same,GI50,[6],> 100 µM (inactive)
same,GI50,[8],> 100 µM (inactive)
same,GI50,[9],> 100 µM (inactive)
same,GI50,[10],> 100 µM (inactive)
same,GI50,[12],> 100 µM (inactive)
same,GI50,[13],> 100 µM
same,GI50,[14],> 100 µM (inactive)
same,GI50,[15],> 100 µM (inactive)
same,GI50,[16],> 100 µM (inactive)
same,GI50,[49],> 100 µM (inactive)
same,GI50,[17],> 100 µM (inactive)
same,GI50,[50],> 100 µM (inactive)
same,GI50,[18],> 100 µM (inactive)
same,GI50,[19],> 100 µM (inactive)
same,GI50,[51],> 100 µM (inactive)
same,GI50,[52],> 100 µM (inactive)
same,GI50,[20],> 100 µM (inactive)
same,GI50,[21],> 100 µM (inactive)
same,GI50,[22],> 100 µM (inactive)
same,GI50,[23],> 100 µM (inactive)
same,GI50,[24],> 100 µM (inactive)
same,GI50,[25],> 100 µM (inactive)
same,GI50,[26],37.8 µM (inactive)
same,GI50,[27],> 100 µM (inactive)
same,GI50,[28],> 100 µM (inactive)
same,GI50,[29],> 100 µM (inactive)
same,GI50,[30],> 100 µM (inactive)
same,GI50,[31],> 100 µM (inactive)
same,GI50,[53],> 100 µM (inactive)
same,GI50,[32],> 100 µM (inactive)
same,GI50,[33],> 100 µM (inactive)
same,GI50,[34],> 100 µM (inactive)
same,GI50,[35],> 100 µM (inactive)
same,GI50,[36],> 100 µM (inactive)
same,GI50,[37],> 100 µM (inactive)
same,GI50,[38],> 100 µM (inactive)
same,GI50,[39],> 100 µM (inactive)
same,GI50,[41],> 100 µM (inactive)
same,GI50,[42],> 100 µM (inactive)
same,GI50,[43],> 100 µM (inactive)
same,GI50,[44],> 100 µM (inactive)
same,GI50,[45],> 100 µM (inactive)
same,GI50,[54],> 100 µM (inactive)
same,GI50,[47],> 100 µM (inactive)
same,GI50,[48],> 100 µM (inactive)
COc1ccc(C(=O)c2sc(Nc3ccc(Cl)cc3)nc2N)cc1,GI50,[1],7.8 µM (inactive)
same,GI50,[55],17 µM (inactive)
same,GI50,[2],6.15 µM (inactive)
same,GI50,[3],25.4 µM (inactive)
same,GI50,[56],> 38.5 µM (inactive)
same,GI50,[4],16.4 µM (inactive)
same,GI50,[5],2.52 µM (inactive)
same,GI50,[6],> 21.2 µM (inactive)
same,GI50,[57],25 µM (inactive)
same,GI50,[10],32.8 µM (inactive)
same,GI50,[11],4.91 µM (inactive)
same,GI50,[12],7.66 µM (inactive)
same,GI50,[13],3.27 µM
same,GI50,[14],0.473 µM (active)
same,GI50,[15],7.91 µM (inactive)
same,GI50,[58],35.3 µM (inactive)
same,GI50,[16],4.43 µM (inactive)
same,GI50,[59],11.2 µM (inactive)
same,GI50,[49],5.93 µM (inactive)
same,GI50,[17],3.82 µM (inactive)
same,GI50,[18],4.48 µM (inactive)
same,GI50,[19],9.42 µM (inactive)
same,GI50,[52],> 63.8 µM (inactive)
same,GI50,[60],4.45 µM (inactive)
same,GI50,[61],26.3 µM (inactive)
same,GI50,[62],2.2 µM (inactive)
same,GI50,[63],2.37 µM (inactive)
same,GI50,[21],4.04 µM (inactive)
same,GI50,[22],12.3 µM (inactive)
same,GI50,[23],29.6 µM (inactive)
same,GI50,[24],13.6 µM (inactive)
same,GI50,[25],4.31 µM (inactive)
same,GI50,[26],3.89 µM (inactive)
same,GI50,[64],5.37 µM (inactive)
same,GI50,[27],8.85 µM (inactive)
same,GI50,[28],12.6 µM (inactive)
same,GI50,[29],> 49.9 µM (inactive)
same,GI50,[30],25.9 µM (inactive)
same,GI50,[65],12.1 µM (inactive)
same,GI50,[31],4.16 µM (inactive)
same,GI50,[53],14.1 µM (inactive)
same,GI50,[32],8.15 µM (inactive)
same,GI50,[33],11.1 µM (inactive)
same,GI50,[34],14 µM (inactive)
same,GI50,[35],29.4 µM (inactive)
same,GI50,[36],17 µM (inactive)
same,GI50,[37],18.3 µM (inactive)
same,GI50,[66],6.35 µM (inactive)
same,GI50,[38],21.6 µM (inactive)
same,GI50,[39],17.2 µM (inactive)
same,GI50,[40],2.79 µM (inactive)
same,GI50,[42],1.93 µM (inactive)
same,GI50,[43],5.71 µM (inactive)
same,GI50,[67],37.6 µM (inactive)
same,GI50,[44],10.1 µM (inactive)
same,GI50,[45],10.7 µM (inactive)
same,GI50,[46],11.9 µM (inactive)
same,GI50,[54],19.3 µM (inactive)
same,GI50,[47],38.2 µM (inactive)
